According to PubChem BioAssay (NCI):
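A five-concentration, 48-hour dose response in 96-well plates underlies each endpoint, interpolated linearly between surrounding concentrations. TGI denotes the concentration required for complete inhibition of growth.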

What was measured:
Test in all cases: inhibition of tumour cell growth, NCI panel, 48 h
SW-620 colon = system: SW-620 colon
RXF 393 renal = system: RXF 393 renal
786-0 renal = system: 786-0 renal
SK-MEL-2 melanoma = system: SK-MEL-2 melanoma
RPMI-8226 leukemia = system: RPMI-8226 leukemia
HOP-92 NSCLC = system: HOP-92 NSCLC
COLO 205 colon = system: COLO 205 colon
HOP-62 NSCLC = system: HOP-62 NSCLC
MALME-3M melanoma = system: MALME-3M melanoma
UACC-62 melanoma = system: UACC-62 melanoma
ACHN renal = system: ACHN renal
M14 melanoma = system: M14 melanoma
SK-MEL-28 melanoma = system: SK-MEL-28 melanoma
HCT-116 colon = system: HCT-116 colon
K-562 leukemia = system: K-562 leukemia
MDA-MB-435 = system: MDA-MB-435
SK-MEL-5 melanoma = system: SK-MEL-5 melanoma
KM12 colon = system: KM12 colon
LOX IMVI melanoma = system: LOX IMVI melanoma
OVCAR-8 ovarian = system: OVCAR-8 ovarian
SF-268 CNS = system: SF-268 CNS
A549 NSCLC = system: A549 NSCLC
SF-539 CNS = system: SF-539 CNS
NCI-H226 lung = system: NCI-H226 lung
OVCAR-5 ovarian = system: OVCAR-5 ovarian
UACC-257 melanoma = system: UACC-257 melanoma
IGROV1 ovarian = system: IGROV1 ovarian
OVCAR-3 ovarian = system: OVCAR-3 ovarian
PC-3 prostate = system: PC-3 prostate
HCC-2998 colon = system: HCC-2998 colon
EKVX NSCLC = system: EKVX NSCLC
TK-10 renal = system: TK-10 renal
U251 CNS = system: U251 CNS
NCI-H23 lung = system: NCI-H23 lung
BT-549 breast = system: BT-549 breast
NCI-H522 lung = system: NCI-H522 lung
UO-31 renal = system: UO-31 renal
HL-60(TB) leukemia = system: HL-60(TB) leukemia
MDA-N = system: MDA-N
A498 renal = system: A498 renal
CAKI-1 renal = system: CAKI-1 renal
SR leukemia = system: SR leukemia
NCI/ADR-RES ovarian = system: NCI/ADR-RES ovarian
SNB-75 CNS = system: SNB-75 CNS
HT29 colon = system: HT29 colon
SN12C renal = system: SN12C renal
CCRF-CEM leukemia = system: CCRF-CEM leukemia
SF-295 CNS = system: SF-295 CNS
SNB-19 CNS = system: SNB-19 CNS
SK-OV-3 ovarian = system: SK-OV-3 ovarian
T-47D breast = system: T-47D breast
HCT-15 colon = system: HCT-15 colon
HS 578T breast = system: HS 578T breast
NCI-H460 lung = system: NCI-H460 lung
DU-145 prostate = system: DU-145 prostate
OVCAR-4 ovarian = system: OVCAR-4 ovarian
MCF7 breast = system: MCF7 breast
MOLT-4 leukemia = system: MOLT-4 leukemia
MDA-MB-231 breast = system: MDA-MB-231 breast

Measured: TGI

CCOC(=O)/C(=C\NCC(OCC)OCC)c1nc2ccccc2[nH]1
62.4 µM: BT-549 breast
95 µM: EKVX NSCLC
55.4 µM: LOX IMVI melanoma
39.5 µM: RPMI-8226 leukemia
73.3 µM: MDA-MB-435
71.5 µM: NCI-H460 lung
44.7 µM: SK-MEL-2 melanoma
71.1 µM: HT29 colon
85.2 µM: MDA-N
58.7 µM: UACC-257 melanoma
77 µM: SK-MEL-28 melanoma
63.7 µM: PC-3 prostate
56.4 µM: NCI-H23 lung
39.6 µM: COLO 205 colon
61.6 µM: SNB-75 CNS
28.5 µM: SK-MEL-5 melanoma
61.5 µM: MALME-3M melanoma
24.4 µM: NCI/ADR-RES ovarian
51.8 µM: HCT-15 colon
52.3 µM: HL-60(TB) leukemia
81 µM: K-562 leukemia
62.1 µM: NCI-H522 lung
51.3 µM: HCC-2998 colon
33.2 µM: UACC-62 melanoma
94.5 µM: T-47D breast
61.9 µM: OVCAR-3 ovarian
41.3 µM: MOLT-4 leukemia
58.5 µM: SR leukemia
not listed: MDA-MB-231 breast
> 100 µM: all other assays above

CC1(C)C=C(/C=N/Nc2ccc([N+](=O)[O-])cc2)C(C#N)=C(O)C1(C#N)C#N
not listed: A498 renal
> 100 µM: all other assays above

CCOC(=O)C(NC(=O)c1ccccc1)(Nc1ccc(S(=O)(=O)Nc2nc(C)cc(C)n2)cc1)C(F)(F)F (stereo not drawn)
not listed: NCI-H522 lung | A498 renal
> 100 µM: all other assays above
